The text below walks through data of article PMC6037852, “Design of Diarylheptanoid Derivatives as Dual Inhibitors Against Class IIa Histone Deacetylase and β-amyloid Aggregation” (Frontiers in Pharmacology, 2018).

SMILES strings stand for the structures.

One data set addresses T1, HDAC6 (Homo sapiens, UniProt Q9UBN7).
T1 sequence (Q9UBN7 1-1215): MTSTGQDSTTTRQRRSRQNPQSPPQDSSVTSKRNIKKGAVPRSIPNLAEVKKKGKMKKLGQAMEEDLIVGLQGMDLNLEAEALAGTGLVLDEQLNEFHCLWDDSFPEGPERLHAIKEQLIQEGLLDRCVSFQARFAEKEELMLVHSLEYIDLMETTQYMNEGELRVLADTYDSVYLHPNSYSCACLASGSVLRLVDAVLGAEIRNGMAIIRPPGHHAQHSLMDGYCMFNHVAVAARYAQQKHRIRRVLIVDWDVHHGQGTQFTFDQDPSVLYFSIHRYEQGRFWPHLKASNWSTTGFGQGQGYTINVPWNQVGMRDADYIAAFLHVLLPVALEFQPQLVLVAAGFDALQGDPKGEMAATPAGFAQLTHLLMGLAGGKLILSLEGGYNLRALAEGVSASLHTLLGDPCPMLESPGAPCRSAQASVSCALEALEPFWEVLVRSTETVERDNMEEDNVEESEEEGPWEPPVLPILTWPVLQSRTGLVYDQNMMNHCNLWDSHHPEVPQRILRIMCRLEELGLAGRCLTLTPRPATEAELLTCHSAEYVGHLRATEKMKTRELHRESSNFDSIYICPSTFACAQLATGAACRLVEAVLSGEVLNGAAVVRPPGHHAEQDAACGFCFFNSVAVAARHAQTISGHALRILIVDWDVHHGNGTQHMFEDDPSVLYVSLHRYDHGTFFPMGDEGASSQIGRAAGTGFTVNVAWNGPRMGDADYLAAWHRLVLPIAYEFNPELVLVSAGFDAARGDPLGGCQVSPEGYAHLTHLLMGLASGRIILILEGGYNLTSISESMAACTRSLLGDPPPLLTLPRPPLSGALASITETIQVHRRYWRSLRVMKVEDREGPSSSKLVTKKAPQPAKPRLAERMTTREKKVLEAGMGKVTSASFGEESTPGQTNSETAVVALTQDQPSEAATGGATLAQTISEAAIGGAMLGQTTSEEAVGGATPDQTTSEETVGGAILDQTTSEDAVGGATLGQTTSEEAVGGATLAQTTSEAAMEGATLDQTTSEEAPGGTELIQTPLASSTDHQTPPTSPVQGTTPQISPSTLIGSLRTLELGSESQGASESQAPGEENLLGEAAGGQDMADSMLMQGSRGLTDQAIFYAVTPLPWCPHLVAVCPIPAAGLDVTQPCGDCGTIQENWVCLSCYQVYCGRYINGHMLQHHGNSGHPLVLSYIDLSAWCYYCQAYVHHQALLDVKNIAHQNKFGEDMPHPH
Nature of the data set: HDAC fluorometric activity assay, HDAC6.

Data set [1] concerns SH-SY5Y cells. Nature of the data set: Cytotoxicity effect on SH-SY5Y cells, alamar blue cell viability assay. Type of data set: cell-based, human. The note with it: 40 μM, 24 h. The procedure: (§1) SH-SY5Y cells were kindly provided by Professor Zhi-Hong Wen (National Sun Yat-sen University) and cultured in DMEM/F12 (Gibco, Grand Island, NY, United States) supplemented with 10% heat-inactivated fetal bovine serum and penicillin (100 U/ml)/streptomycin (100 μg/ml) (Invitrogen, Carlsbad, CA, United States) at 37°C in an atmosphere of 5% CO2.
Cell viability was assessed using the alamar blue (7-hydroxy-10-oxidophenoxazin-10-ium-3-one) cell viability assay in 6 replicates as described previously ([Feng et al., 2016]). Briefly, 5 × 10^3 cells/well were seeded in 96-well flat-bottomed plates; 24 h later, cells were treated with compounds or DMSO as control. After 24 h of incubation, the medium was removed, 100 μL medium containing 10 μL of alamar blue was added, and cells were incubated in the 5% CO2 incubator at 37°C for 4 h. Absorbance at 570 nm was determined by Synergy HT microplate reader. The results were averaged over three different independent experiments. The cell viability was also evaluated by trypan blue exclusion test.
Background: The colour change of resazurin is a common sign of viable cells or microbes.

Data set [2] relates to SH-SY5Y cells. Nature of the data set: Neuroprotection against H2O2-induced neurotoxicity on SH-SY5Y cells, MTT assay. The note with it: Homo sapiens, compound 40 μM, 500 μM H2O2, 3 h, percentage of control, H2O2 alone 34.6%, read-out: Cell viability after H2O2 exposure. Type of data set: cell-based. The protocol: as §1
H2O2-induced neurotoxicity on SH-SY5Y cells was used to evaluate the neuroprotective effect ([Rafatian et al., 2012]; [Omar et al., 2017]). Briefly, a density of 2 × 10^4 SH-SY5Y cells were seeded per well in 96-well plates. After 24 h of incubation, the medium was replaced with serum free medium containing H2O2 at a concentration of 500 μM and treated with different concentrations of compounds (40, 20, and 10 μM). SH-SY5Y cells were also cultured without any treatment as control group and results were indicated by percentage of control. After 3 h, cell viability was performed by MTT assay. The cells were treated with MTT (5 mg/ml in PBS) for 4 h at 37°C. The formazan crystals were generated by viable mitochondrial succinate dehydrogenase from MTT. The supernatant was then aspirated off and the formazan crystals were dissolved with DMSO. Absorbance at 570 nm was determined by Tecan Sunrise microplate reader. The trypan blue exclusion test was also used to evaluate the neuroprotection.

Experimental for HDAC6: Enzyme, inhibitors and substrate were diluted with HDAC buffer (15 mM Tris-HCl pH 8.1, 0.25 mM EDTA, 250 mM NaCl, 10% v:v glycerol). Briefly, 10 μL diluted HDAC, i.e., HeLa nuclear extract (Enzo), HDAC6 (BPS), HDAC4, HDAC5 (BPS), HDAC7 (BPS) and HDAC9 (BPS), as well as 50 μL of testing compounds at different concentrations were added to each well of a 96-well microtiter plate and pre-incubated at 30°C for 5 min. […] The fluorescence in wells without test compounds (0.1% DMSO, negative control) was set as 100% enzymatic activity and the fluorescence in wells with enzyme eliminated was set as 0% enzymatic activity. The fluorescence ratio of test compounds to negative control was defined as percentage of remaining enzyme activity. The IC50 values were calculated by linear regression of the data. All experiments were performed in triplicate.

For orientation: IC50 means the midpoint of a concentration-inhibition curve. Compound `O=C(CCc1ccc(O)c(O)c1)c1ccccc1` [Compound 8a] had an IC50 at HDAC6 above 40 µM.
Still for that read-out and setting: the figure for `O=C(/C=C/c1ccccc1)CCCCc1ccccc1` [Compound 4a] is above 40 µM.
On the same count and under the same terms, in the case of `O=C(/C=C/c1ccc(O)cc1)CCCCc1ccccc1` [Compound 4b] it was above 40 µM; in that of `O=C(CCCCc1ccccc1)CCc1ccc(O)cc1` [Compound 5b], above 40 µM; in that of `O=C(CCCCc1ccccc1)CCc1ccc(O)c(F)c1` [Compound 5f], above 40 µM.
Consider `O=C(/C=C/c1cccc(O)c1)CCCCc1ccccc1` [Compound 4d], for which the IC50 against HDAC6 is above 40 µM.
As to `O=C(/C=C/c1ccc(O)c(O)c1)CCCCc1ccccc1` [Compound 4c], on HDAC6, it took 18.3 ± 0.9 µM to reach half-maximal inhibition (IC50).
With `O=C(CCCc1ccccc1)CCc1ccc(O)c(O)c1` [Compound 8d], the IC50 against HDAC6 was above 40 µM.
On the same count and under the same terms, in the case of `O=C(CCCCc1ccccc1)CCc1ccc(O)c(Br)c1` [Compound 5h] it was above 40 µM; in that of `O=C(/C=C/c1ccc(O)c(O)c1)c1ccccc1` [Compound 7a], 26.2 ± 4.3 µM; in that of `O=C(/C=C/c1ccc(O)c(F)c1)CCCCc1ccccc1` [Compound 4f], above 40 µM.
Same read-out and setting: the figure for `O=C(CCCCc1ccccc1)CCc1ccccc1` [Compound 5a] is above 40 µM; for `O=C(CCc1ccc(O)c(O)c1)Cc1ccccc1` [Compound 8b] it is above 40 µM.
Still for that read-out and setting: in the case of `O=C(/C=C/c1ccc(O)c(Cl)c1)CCCCc1ccccc1` [Compound 4g] it was above 40 µM; in that of `O=C(/C=C/c1ccc(O)c(Br)c1)CCCCc1ccccc1` [Compound 4h], above 40 µM.
`O=C(/C=C/c1ccc(O)c(O)c1)CCc1ccccc1` [Compound 7c] registered an IC50 on HDAC6 of 34.5 ± 2.2 µM.
What is called viability is a read-out of living cells in per cent, often relative to untreated cells. With `O=C(CCCCc1ccccc1)CCc1cccc(O)c1O` [Compound 5e], the IC50 against HDAC6 is above 40 µM. Further, in the data set with SH-SY5Y cells [1], the “Cytotoxicity to SH-SY5Y cells” value is reported as “did not show significant cytotoxicity”. Further, the viability at 40 µM with SH-SY5Y cells [2] is 58.8%.
The compound `COc1cc(/C=C/C(=O)CCCCc2ccccc2)ccc1O` [Compound 4k] displayed an IC50 on HDAC6 above 40 µM.
Same read-out and setting: in the case of `COc1cc(CCC(=O)CCCCc2ccccc2)ccc1O` [Compound 5i] it was above 40 µM.
The compound `O=C(/C=C/c1cc(O)c(O)c(O)c1)CCCCc1ccccc1` [Compound 4j] registered a 50% inhibitory concentration (IC50) against HDAC6 of 11.9 ± 0.2 µM. Further, the “Cytotoxicity to SH-SY5Y cells” value in the data set with SH-SY5Y cells [1] is given as “did not show significant cytotoxicity”. For the same compound, the viability at 40 µM in the data set on SH-SY5Y cells [2] worked out at 88.3%.
Compound `O=C(/C=C/c1cccc(O)c1O)CCCCc1ccccc1` [Compound 4e] returned an IC50 against HDAC6 of 29.4 ± 1.5 µM.
On the same count and under the same terms, in the case of `O=C(CCCCc1ccccc1)CCc1cccc(O)c1` [Compound 5d] it was above 40 µM; in that of `O=C(/C=C/c1ccc(O)c(O)c1)CCCc1ccccc1` [Compound 7d], 37.5 ± 1.6 µM; in that of `O=C(/C=C/c1ccc(O)c(O)c1)Cc1ccccc1` [Compound 7b], 37.2 ± 1.2 µM.
On the same count and under the same terms, the figure for `O=C(CCc1ccccc1)CCc1ccc(O)c(O)c1` [Compound 8c] is above 40 µM; for `O=C(CCCCc1ccccc1)CCc1ccc(O)c(Cl)c1` [Compound 5g] it is above 40 µM.
At HDAC6, `O=C(CCCCc1ccccc1)CCc1ccc(O)c(O)c1` [Compound 5c] showed an IC50 above 40 µM. In addition, the “Cytotoxicity to SH-SY5Y cells” value in the data set with SH-SY5Y cells [1] is recorded as “did not show significant cytotoxicity”. The viability at 40 µM with SH-SY5Y cells [2] was 61.3%.
As for `O=C(/C=C/c1ccc(O)c([N+](=O)[O-])c1)CCCCc1ccccc1` [Compound 4i], at HDAC6, the IC50 is above 40 µM.
